According to US6875748B2, “Compositions and methods for in vivo delivery of polynucleotide-based therapeutics” (Vical Incorporated, priority 2000, dated 2005):
Like-named read-outs stand apart in the source and are kept apart here.

Columns and labels:
mouse quadriceps muscle = assay: Luciferase expression in mouse quadriceps muscle 7 days after i.m. injection of plasmid VR1223 in salt solutions; type: in vivo; design: lux: unit: ng/muscle; settings: for luciferase expression compared with saline (words): 150 mM solutions; for lux: 7-day luciferase expression, VR1223
mouse lung = assay: Luciferase expression in mouse lung 3 days after intranasal instillation of VR1223 complexed with GAP-DLRIE/DOPE; type: in vivo; settings: 132 μg VR1223 + GAP-DLRIE/DOPE, day 3
[1] = Osmolarity of the salt solutions; type: physicochemical; settings: for Osm: 150 mM unless otherwise indicated
pH of the salt solutions = type: physicochemical
[2] = 50 μg VR1223 in 50 μl, salts at 150 mM, day 7
[3] = salts at 150 mM, relative to saline, day 7
[4] = 150 mM unless otherwise indicated

For `O` [Double-distilled water, reference compound], the “ng Lux per Muscle” value (mouse quadriceps muscle; 50 μg VR1223 in 50 μl of the solution, day 7) was 4 ng per Muscle, the “ng luciferase per muscle” value (mouse quadriceps muscle; 50 μg VR1223 in 50 μl, day 7) was 4 ng luciferase per muscle and the “luciferase expression, times lower than saline” value (mouse quadriceps muscle; VR1223, day 7) was 25 times. For the same compound, the “Fold Saline” value (mouse quadriceps muscle; luciferase expression relative to saline, day 7) was 0.03 Fold and the “luciferase expression in lung” value (mouse lung) was 0.94 ng lux/lung.
Work on `O=C([O-])CC(O)(CC(=O)[O-])C(=O)[O-].[Na+].[Na+].[Na+]` [Sodium Citrate] yielded an osmolarity [1] of 394 mmol/kg, an Osm [1] of 394 mmol/kg and an Osm ([1]; listed as 50 mM Sodium Citrate) of 164 mmol/kg. For the same compound, the “ng Lux/Muscle” value (mouse quadriceps muscle; [2]) was 90 ng/Muscle, the “luciferase expression compared with saline (words)” value (mouse quadriceps muscle; VR1223, day 7, listed as 150 mM sodium citrate) was “no ability to enhance” and the “luciferase expression compared with saline (words)” value (mouse quadriceps muscle; VR1223, day 7, listed as Sodium citrate) was “same luciferase expression as saline”. For the same compound, the “luciferase expression compared with saline (words)” value (mouse quadriceps muscle; VR1223, day 7, listed as sodium citrate) was “the same as with saline”, the lux (mouse quadriceps muscle; Table III-A) was 108 and the lux (mouse quadriceps muscle; Table III-A, listed as 50 mM Sodium Citrate) was 83. For the same compound, the lux (mouse quadriceps muscle; Table III-B) was 108, the lux (mouse quadriceps muscle; Table III-B, listed as 50 mM Sodium Citrate) was 83 and the “Fold Saline” value (mouse quadriceps muscle; [3]) was less than 0.1 Fold. The pH (pH of the salt solutions; [4]) was 7.5.
In the case of `O=C([O-])C(=O)[O-].[Na+].[Na+]` [Sodium Oxalate], the Osm [1] is reported as 346 mmol/kg, the “ng Lux/Muscle” value (mouse quadriceps muscle; [2]) is reported as 15 ng/Muscle and the “luciferase expression compared with saline (words)” value (mouse quadriceps muscle; VR1223, day 7) is reported as “inhibited luciferase expression”. The “luciferase expression compared with saline (words)” value (mouse quadriceps muscle; VR1223, day 7, listed as 150 mM sodium oxalate) was “no ability to enhance”, the lux (mouse quadriceps muscle; Table III-A) was 15 and the lux (mouse quadriceps muscle; Table III-B) was 15. For the same compound, the “Fold Saline” value (mouse quadriceps muscle; [3]) was less than 0.1 Fold and the pH (pH of the salt solutions; [4]) was 6.5.
For `[Cl-].[Cl-].[Zn+2]` [Zinc Chloride], the Osm [1] was 358 mmol/kg, the “ng Lux/Muscle” value (mouse quadriceps muscle; [2]) was 0.1 ng/Muscle and the “luciferase expression compared with saline (words)” value (mouse quadriceps muscle; VR1223, day 7) was “no ability to enhance”. The lux (mouse quadriceps muscle; Table III-A) was 0.1, the lux (mouse quadriceps muscle; Table III-B) was 0.1 and the “Fold Saline” value (mouse quadriceps muscle; [3]) was less than 0.1 Fold. For the same compound, the pH (pH of the salt solutions; [4]) was 5.0.
In the case of `[Cl][Fe][Cl]` [Ferrous Chloride], the Osm [1] is reported as 362 mmol/kg, the “ng Lux/Muscle” value (mouse quadriceps muscle; [2]) is reported as 0.0 ng/Muscle and the “luciferase expression compared with saline (words)” value (mouse quadriceps muscle; VR1223, day 7) is reported as “no ability to enhance”. For the same compound, the lux (mouse quadriceps muscle; Table III-A) was 0.0, the lux (mouse quadriceps muscle; Table III-B) was 0.0 and the “Fold Saline” value (mouse quadriceps muscle; [3]) was less than 0.1 Fold. For the same compound, the pH (pH of the salt solutions; [4]) was 5.0.
For `O=P(O)(O)O` [Potassium Phosphate], the Osm [1] was 323 mmol/kg, the “ng Lux/Muscle” value (mouse quadriceps muscle; [2]) was 449 ng/Muscle and the “luciferase expression compared with saline (words)” value (mouse quadriceps muscle; VR1223, day 7) was “stimulated expression just as well as solution of 150 mM sodium phosphate”. The lux (mouse quadriceps muscle; Table III-A) was 449, the lux (mouse quadriceps muscle; Table III-B) was 449 and the “Fold Saline” value (mouse quadriceps muscle; [3]) was 3.8 Fold. The pH (pH of the salt solutions; [4]) was 7.5.
For `O=S(=O)([O-])[O-].[Na+].[Na+]` [Sodium Sulfate], the Osm [1] was 349 mmol/kg, the “ng Lux/Muscle” value (mouse quadriceps muscle; [2]) was 312 ng/Muscle and the “luciferase expression compared with saline (words)” value (mouse quadriceps muscle; VR1223, day 7) was “increased luciferase expression compared with saline”. For the same compound, the lux (mouse quadriceps muscle; Table III-A) was 312, the lux (mouse quadriceps muscle; Table III-B) was 312 and the “luciferase expression, fold over saline” value (mouse quadriceps muscle; VR1223, day 7) was 2.6 fold. The “Fold Saline” value (mouse quadriceps muscle; [3]) was 2.6 Fold, the pH (pH of the salt solutions) was 5.5 and the pH (pH of the salt solutions; [4]) was 5.5.
With `O=P([O-])(O)O.[Na+]` [Sodium monobasic, NaH2PO4] the Osm [1] was 277 mmol/kg, the “ng Lux/Muscle” value (mouse quadriceps muscle; [2]) was 198 ng/Muscle and the “luciferase expression compared with saline (words)” value (mouse quadriceps muscle; VR1223, day 7) was “only slightly stimulated over saline”. For the same compound, the lux (mouse quadriceps muscle; Table III-A) was 198, the lux (mouse quadriceps muscle; Table III-B) was 198 and the “Fold Saline” value (mouse quadriceps muscle; [3]) was 1.7 Fold. It also gave a pH (pH of the salt solutions; [4]) of 5.5.
In the case of `CC(=O)[O-].[Na+]` [Sodium Acetate], the Osm [1] is reported as 271 mmol/kg, the “ng Lux/Muscle” value (mouse quadriceps muscle; [2]) is reported as 498 ng/Muscle and the “luciferase expression compared with saline (words)” value (mouse quadriceps muscle; VR1223, day 7) is reported as “increased luciferase expression compared with saline”. The lux (mouse quadriceps muscle; Table III-A) was 498, the lux (mouse quadriceps muscle; Table III-B) was 498 and the “Fold Saline” value (mouse quadriceps muscle; [3]) was 4.1 Fold. It also gave a pH (pH of the salt solutions; [4]) of 6.5.
For `O=P([O-])([O-])O.[Na+].[Na+]` [Sodium dibasic, Na2HPO4], the Osm [1] was 357 mmol/kg, the “ng Lux/Muscle” value (mouse quadriceps muscle; [2]) was 282 ng/Muscle and the “luciferase expression compared with saline (words)” value (mouse quadriceps muscle; VR1223, day 7) was “only slightly stimulated over saline”. For the same compound, the lux (mouse quadriceps muscle; Table III-A) was 282, the lux (mouse quadriceps muscle; Table III-B) was 282 and the “Fold Saline” value (mouse quadriceps muscle; [3]) was 2.4 Fold. For the same compound, the pH (pH of the salt solutions; [4]) was 8.0.
